According to US10597430B2, “Chimeric gene for heterologous expression which encodes for peptides with antimicrobial activity” (Instituto de Investigaciones Agropecuarias, priority 2013, dated 2020):

Tests used:
Format in all cases: cell-based
[1] = tested on: Alternaria sp; test: Antifungal growth assay on PDA agar supplemented with peptide (spore count, mycelium area); details: respectively
Protocol: (§1) a) Evaluation of Peptides obtained in E coli: Isolates from Botrytis cinerea, Fusarium oxysporum, Trichoderma harzianum and Alternaria spp. were treated with the purified fractions of the digested and non-digested peptides (pre-TEV/rAp-S and rAp-S) derived from the selected recombinant clone of E. coli (Example 3).
(§2) The potential antifungal abilities of both peptides were evaluated by analysis of the growth patterns of these fungi on agar PDA (potato-dextrose) in Petri dishes supplemented with protein extracts at 500 μg/L (162 nM) and 250 μg/L (81 nM), respectively.
(§3) The control growth assays were performed on PDA dishes without peptides. The growth patterns were evaluated according the amount of time required for the fungi to reach the dish walls in the control plates (10 days after inoculation in darkness at room temperature). Structural images of the fungi hyphae patterns were obtained using a Olympus® microscope (Center Valley, Pa., USA), and spores were counted using a Neubauer […] (Brand®, Wertheim, Germany) at 40×. The data were subjected to analyses of variance, and averages were separated by the least significant difference test (LSD) at the 5% level of significance using Statgraphics Centurion XV (Manμistics Inc., Rockville, Md., USA). Petri dishes containing grown fungi were scanned and digitalized for statistical processing. The area of the mycelia was quantified using Gel-Pro Analyzer 4.0 (Media Cybernetics, Minneapolis, Minn., USA), and surface values in pixels were transferred to Excel (Microsoft Corporation, USA) for analysis. The average value of the colored haloes was calculated using scanned images of five repetitions on the tenth day after inoculation. The collected data were subjected to variance analysis, and the averages separated by LSD at the 5% level of significance.

[2] = tested on: Botrytis cinerea; test: as above; details: respectively
Protocol: as §1, §2, §3

[3] = tested on: Fusarium oxysporum; test: as above; details: respectively
Protocol: as §1, §2, §3

[4] = tested on: Trichoderma harzianum; test: as above; details: respectively
Protocol: as §1, §2, §3

[5] = tested on: Clavibacter michiganensis; test: Growth inhibition assay at different concentrations of peptide rAp-S (specific growth rate, OD600); details: control 0.072
Protocol: (§4) Growth Inhibition Assays at Different Concentrations of Peptide rAp-S: The inoculation of 5 mL of LB was performed with 100 μL of bacteria (Xanthomona campestris and Clavibacter michiganensis), followed by overnight culturing. The absorbance was quantified at OD600. Once the Abs was quantified, dilutions were made to obtain an Abs to inoculate each tube with the same concentration of bacteria with an initial OD600 of 0.04. Different peptide concentrations were used. A final volume of 10 mL in a 50 mL tube was used. In addition, a control without peptide was used for each bacterium. The kinetics of the process was followed for 8 h from time zero, determining the Abs every 2 h. The data were logarithmically transformed for the exponential phase of kinetics, and a linear regression was performed on the transformed data. The slope of the regression is the specific growth rate of the bacteria: μ (h^−1).

[6] = tested on: Xanthomona campestris; test: as above; details: control 0.385
Protocol: as §4

[7] = PDA supplemented with pre-TEV/rAp-S 500 μg/L (162 nM) and rAp-S 250 μg/L (81 nM), 10 days after inoculation
[8] = PDA supplemented with pre-TEV/rAp-S 500 μg/L and rAp-S 250 μg/L, tenth day after inoculation

Substance: rAp-S: recombinant version of antimicrobial peptide Ap-S, 31 amino acids MPVGIVIAPKKSPFTAKKPGPVLSGVKAGPG (SEQ ID No. 9), released by TEV protease digestion (listed as Argopecten purpuratus)
- Spore count, Average [1, 7]: 0
- Central area of the mycelium, Average [1, 8]: 412403 pixeles
- Spore count, Average [2, 7]: 1.02 × 10^6
- Central area of the mycelium, Average [2, 8]: 170781 pixeles
- Spore count, Average [3, 7]: 7.6 × 10^5
- Central area of the mycelium, Average [3, 8]: 511699 pixeles
- Spore count, Average [4, 7]: 5.0 × 10^6
- Central area of the mycelium, Average [4, 8]: 85718 pixeles
- Specific growth rate μ ([5]; peptide 1 μg/L): 0.070 h⁻¹
- Specific growth rate μ ([5]; peptide 10 μg/L): 0.069 h⁻¹
- Specific growth rate μ ([5]; peptide 100 μg/L): 0.075 h⁻¹
- Specific growth rate μ ([5]; peptide 1 mg/L): 0.069 h⁻¹
- Specific growth rate μ ([5]; peptide 2 mg/L): 0.069 h⁻¹
- Specific growth rate μ ([5]; peptide 3 mg/L): 0.073 h⁻¹
- Specific growth rate μ ([5]; peptide 4 mg/L): 0.066 h⁻¹
- Specific growth rate μ ([5]; peptide 12.5 mg/L): 0.009 h⁻¹
- Specific growth rate μ ([5]; peptide 15.5 mg/L): 0.003 h⁻¹
- Specific growth rate μ ([6]; peptide 1 μg/L): 0.371 h⁻¹
- Specific growth rate μ ([6]; peptide 10 μg/L): 0.375 h⁻¹
- Specific growth rate μ ([6]; peptide 100 μg/L): 0.386 h⁻¹
- Specific growth rate μ ([6]; peptide 1 mg/L): 0.329 h⁻¹
- Specific growth rate μ ([6]; peptide 2 mg/L): 0.015 h⁻¹
- Specific growth rate μ ([6]; peptide 3 mg/L): -0.012 h⁻¹
- Specific growth rate μ ([6]; peptide 4 mg/L): -0.019 h⁻¹
